The source of these data is PubChem BioAssay (NCI).

Among the test systems are SF-268 CNS; OVCAR-3 ovarian; OVCAR-4 ovarian; SK-MEL-2 melanoma; DU-145 prostate; CAKI-1 renal; SNB-19 CNS; LOX IMVI melanoma; SF-295 CNS; PC-3 prostate.
Common to all, as to assay: growth of human tumour cells (NCI), 48 h

Several values for one entry are separate records, joined by “and”; a condition that tells them apart may be missing. Identical values can stand only once.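 All cell lines were grown in 96-well plates and treated with compound for 48 hours. GI50 marks 50% less growth. TGI marks complete inhibition of growth.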

As for `O=C1C(Nc2cccc(O)c2)=C(Sc2ccc(Cl)cc2)C(=O)N1Cc1ccccc1`, the GI50 in the assay with SF-268 CNS is 8.73 µM; with OVCAR-3 ovarian, 10.6 µM; in the assay with OVCAR-4 ovarian, 14.1 µM; in the assay on SK-MEL-2 melanoma, 28.3 µM; in the assay on DU-145 prostate, 12 µM; with CAKI-1 renal, 18.6 µM. The GI50 was 25.1 µM in the assay on SNB-19 CNS, 8.7 µM with LOX IMVI melanoma, 7.5 µM in the assay with SF-295 CNS and 4.66 µM with PC-3 prostate. Besides, the TGI was 44.6 µM in the assay with SF-268 CNS; 28.2 µM in the assay with OVCAR-3 ovarian; greater than 100 µM in the assay on OVCAR-4 ovarian; greater than 100 µM with SK-MEL-2 melanoma; 33.3 µM in the assay on DU-145 prostate; 38.9 µM in the assay with CAKI-1 renal. Also, the TGI is greater than 100 µM with SNB-19 CNS, 29.1 µM in the assay with LOX IMVI melanoma, 24.9 µM in the assay on SF-295 CNS and 24.7 µM with PC-3 prostate.
For `CCCCCCCCCCC(CN(CC)CC)C(O)c1ccccc1` (configuration not stated), the GI50 in the assay on SF-268 CNS is 1.94 µM; in the assay with OVCAR-3 ovarian it was 1.99 µM; in the assay on OVCAR-4 ovarian, 1.63 µM; in the assay on SK-MEL-2 melanoma it was 2.31 µM; with DU-145 prostate, 1.89 µM; with CAKI-1 renal, 1.51 µM. Also, the GI50 in the assay with SNB-19 CNS was 1.86 µM; in the assay with LOX IMVI melanoma, 1.75 µM; in the assay on SF-295 CNS, 1.84 µM; in the assay on PC-3 prostate it was 1.62 µM. Besides, the TGI with SF-268 CNS was found to be 3.87 µM; in the assay on OVCAR-3 ovarian it was 3.78 µM; in the assay on OVCAR-4 ovarian, 3.45 µM; with SK-MEL-2 melanoma, 5.45 µM; with DU-145 prostate, 3.49 µM; in the assay on CAKI-1 renal, 2.92 µM. Also, the TGI with SNB-19 CNS was 3.77 µM; in the assay with LOX IMVI melanoma, 3.19 µM; in the assay on SF-295 CNS it was 3.48 µM; in the assay on PC-3 prostate, 3.13 µM.
As for `NC(N)=N/N=C(/c1ccccc1)c1ccc(O)cc1O`, the TGI in the assay with SF-268 CNS, in the assay on OVCAR-3 ovarian, in the assay with OVCAR-4 ovarian, with SK-MEL-2 melanoma, with DU-145 prostate and in the assay with CAKI-1 renal was greater than 100 µM throughout. For the same compound, the TGI in the assay on SNB-19 CNS, in the assay on LOX IMVI melanoma, with SF-295 CNS and with PC-3 prostate was greater than 100 µM each time.
Regarding `C=C1C(=O)O[C@H]2[C@H]1CC/C(COC(=O)NCc1cccc(OC)c1)=C\CC[C@@]1(C)O[C@@H]21`, the GI50 in the assay with SF-268 CNS is 3.21 µM; in the assay with OVCAR-3 ovarian, 1.6 µM; in the assay on OVCAR-4 ovarian, 2.61 µM; in the assay with SK-MEL-2 melanoma it was 11.4 µM; with DU-145 prostate it was 1.58 µM; in the assay on CAKI-1 renal it was 1.62 µM. Besides, the GI50 in the assay on SNB-19 CNS was 6.42 µM; with LOX IMVI melanoma, 1.51 µM; with SF-295 CNS, 9.76 µM; in the assay on PC-3 prostate it was 2.26 µM. The TGI in the assay on SF-268 CNS turned out to be 12.1 µM; in the assay with OVCAR-3 ovarian, 3.29 µM; with OVCAR-4 ovarian it was 11.1 µM; in the assay on SK-MEL-2 melanoma it was 25 µM; in the assay on DU-145 prostate, 3.04 µM; in the assay with CAKI-1 renal it was 3.62 µM. The TGI in the assay with SNB-19 CNS came out at 20 µM; in the assay on LOX IMVI melanoma, 3.01 µM; in the assay with SF-295 CNS it was 21.7 µM; with PC-3 prostate, 6.07 µM.
In the case of `c1ccc([P+](CCC[P+](c2ccccc2)(c2ccccc2)c2ccccc2)(c2ccccc2)c2ccccc2)cc1`, the GI50 is 7.71 µM in the assay with SF-268 CNS; 4.41 µM in the assay with OVCAR-3 ovarian; 5.51 µM in the assay with OVCAR-4 ovarian; 8.44 µM in the assay with SK-MEL-2 melanoma; 19.9 µM with DU-145 prostate; 8.95 µM with SNB-19 CNS. Also, the GI50 was 16.2 µM in the assay with SF-295 CNS and 3.26 µM in the assay with PC-3 prostate. Further, the TGI with SF-268 CNS was greater than 100 µM; in the assay on OVCAR-3 ovarian, 83.7 µM and 35.5 µM; with OVCAR-4 ovarian it was greater than 100 µM; in the assay with SK-MEL-2 melanoma, 40 µM; with DU-145 prostate, greater than 100 µM; with CAKI-1 renal, greater than 100 µM. In addition, the TGI is greater than 100 µM with SNB-19 CNS, greater than 100 µM in the assay on LOX IMVI melanoma, greater than 100 µM in the assay with SF-295 CNS and 81.1 µM in the assay with PC-3 prostate.
As for `CCCCCC/C=C\CCCCCCCCCc1c(O)c(OC)cc(O)c1CN(C)C`, the TGI was 19 µM in the assay with OVCAR-3 ovarian; 3.38 µM in the assay with OVCAR-4 ovarian; 40.1 µM in the assay on SK-MEL-2 melanoma; 36 µM in the assay with DU-145 prostate; 26.9 µM with CAKI-1 renal; 26.5 µM in the assay with SNB-19 CNS. In addition, the figures for the TGI in the assay with LOX IMVI melanoma, in the assay on SF-295 CNS and in the assay on PC-3 prostate were greater than 100 µM, 16.2 µM and 14.5 µM, respectively.
With `COc1ccc(CC(C#N)c2cc(OC)c(OC)c(OC)c2)cc1` (configuration not stated), the TGI in the assay on SF-268 CNS is greater than 71.4 µM; in the assay with OVCAR-3 ovarian, 0.113 µM; in the assay on OVCAR-4 ovarian, greater than 100 µM; in the assay with SK-MEL-2 melanoma, greater than 100 µM; in the assay on DU-145 prostate, 1.82 µM; in the assay with CAKI-1 renal, greater than 81 µM. The TGI with SNB-19 CNS was greater than 100 µM; in the assay on LOX IMVI melanoma it was greater than 100 µM; in the assay on SF-295 CNS, 0.0783 µM; in the assay on PC-3 prostate, greater than 100 µM.
With `C=C(CN(CCN1CCOCC1)CC(=C)c1ccc(C(=O)Nc2ccccc2N)cc1)c1ccc(C(=O)Nc2ccccc2N)cc1`, the GI50 in the assay with SF-268 CNS was 8.17 µM; with OVCAR-3 ovarian, 10.1 µM; with OVCAR-4 ovarian it was 10.5 µM; with SK-MEL-2 melanoma it was 11.1 µM; in the assay with DU-145 prostate it was 6.88 µM; in the assay with CAKI-1 renal, 9.45 µM. Moreover, the GI50 with SNB-19 CNS is 9.18 µM; in the assay with LOX IMVI melanoma, 1.07 µM; in the assay with SF-295 CNS it was 8.46 µM; with PC-3 prostate, 15 µM. The TGI in the assay with SF-268 CNS was 25 µM; in the assay with OVCAR-3 ovarian, 39.8 µM; in the assay with OVCAR-4 ovarian it was greater than 50 µM; in the assay with SK-MEL-2 melanoma, greater than 50 µM; in the assay with DU-145 prostate, 15.7 µM; in the assay with CAKI-1 renal, 34.6 µM. Further, the TGI with SNB-19 CNS is 33.4 µM; with LOX IMVI melanoma, 6.47 µM; in the assay on SF-295 CNS, 19.9 µM; in the assay on PC-3 prostate, greater than 50 µM.
